Measured values published in patent US20070128217A1 (priority 2003, published 2007).

Assays:
[1] = test system: control sera (pooled serum of ten healthy LUMC hospital workers; commercial negative donor pooled serum from the Dutch bloodbank); format: binding, human; design: Binding of Control serum LUMC to linear peptides / Binding of Control serum Blood-bank to linear peptides / Binding of Control serum LUMC to looped peptides / Binding of Control Serum Blood-Bank to Looped peptides / Binding of Control serum LUMC to linear peptides of the protein M of SARS-CoV Urbani / Binding of Control serum Blood-bank to linear peptides of the protein M of SARS-CoV Urbani / Binding of Control serum LUMC to looped peptides of the protein M of SARS-CoV Urbani / Binding of Control Serum Blood-Bank to Looped peptides of the protein M of SARS-CoV Urbani: unit not given here
[2] = test system: rabbit serum obtained by immunizing a rabbit with the SARS-CoV strain Frankfurt 1; format: binding; design: Binding of a rabbit serum to linear peptides / Binding of a rabbit serum to looped peptides / Rabbit serum linear peptides / Rabbit serum looped peptides / Binding of a rabbit serum to linear peptides of protein N of SARS-CoV Urbani (Rabbit serum linear peptides) / Binding of a rabbit serum to looped/cyclic peptides of protein N of SARS-CoV Urbani (Rabbit serum looped peptides): unit not given here
[3] = test system: antibodies in sera from SARS patients (sera 1a, 1b, 2, 6, 37, 62, London, SARS-yellow, SARS-green); format: binding, human; design: Binding of serum 6 to linear peptides of protein X1 of SARS-CoV Urbani / Binding of serum 37 to linear peptides of protein X1 of SARS-CoV Urbani / Binding of serum 6 to looped/cyclic peptide (PEPSCAN-ELISA) / Binding of serum 37 to looped/cyclic peptide (PEPSCAN-ELISA) / Binding of serum 37 to looped/cyclic peptides of protein X1 of SARS-CoV Urbani / Binding of serum 6 to linear peptides of protein X2 / Binding of serum 37 to linear peptides of protein X2 / Binding of serum 37 to looped/cyclic peptides of protein X2 of SARS-CoV Urbani / Binding of serum 6 to linear peptides of protein M of SARS-CoV Urbani / Binding of serum 37 to linear peptides of protein M of SARS-CoV Urbani / Binding of serum 6 to looped/cyclic peptides of protein M of SARS-CoV Urbani / Binding of serum 37 to looped/cyclic peptides of protein M of SARS-CoV Urbani / Binding of serum 6 to linear peptides of protein X3 of SARS-CoV Urbani / Binding of serum 37 to linear peptides of protein X3 of SARS-CoV Urbani / Binding of serum 37 to looped/cyclic peptides of protein X3 of SARS-CoV Urbani / Binding of serum 6 to linear peptides of protein X4 of SARS-CoV Urbani / Binding of serum 37 to linear peptides of protein X4 of SARS-CoV Urbani / Binding of serum 37 to looped/cyclic peptides of protein X4 of SARS-CoV Urbani / Binding of serum 6 to linear peptides of protein X5 of SARS-CoV Urbani / Binding of serum 37 to linear peptides of protein X5 of SARS-CoV Urbani / Binding of serum 37 to looped/cyclic peptides of protein X5 of SARS-CoV Urbani / Binding of serum 6 to linear peptides of protein N of SARS-CoV Urbani / Binding of serum 37 to linear peptides of protein N of SARS-CoV Urbani / Binding of serum 6 to linear peptide (PEPSCAN-ELISA) / Binding of serum 1a to looped/cyclic peptides of protein N of SARS-CoV Urbani / Binding of serum 1b to looped/cyclic peptides of protein N of SARS-CoV Urbani / Binding of serum 2 to looped/cyclic peptides of protein N of SARS-CoV Urbani / Binding of serum 6 to looped/cyclic peptides of protein N of SARS-CoV Urbani / Binding of serum 37 to looped/cyclic peptides of protein N of SARS-CoV Urbani / Binding of serum 62 to looped/cyclic peptides of protein N of SARS-CoV Urbani / Binding of serum London to looped/cyclic peptides of protein N of SARS-CoV Urbani / Binding of serum SARS-green to looped/cyclic peptides of protein N of SARS-CoV Urbani: unit not given here
[4] = test system: recombinant human anti-SARS-CoV antibody 03-018; format: binding; design: Binding of antibody 03-018 to linear peptides of the N protein of SARS-CoV Urbani / Binding of antibody 03-018 to looped/cyclic peptides of the N protein of SARS-CoV Urbani: unit not given here

Row | Sequence | Binding of a rabbit serum to linear peptides of protein N of SARS-CoV Urbani (Rabbit serum linear peptides) [2] | Binding of a rabbit serum to looped/cyclic peptides of protein N of SARS-CoV Urbani (Rabbit serum looped peptides) [2] | Binding of serum 1a to linear peptides of protein N of SARS-CoV Urbani [3] | Binding of serum 1a to looped/cyclic peptides of protein N of SARS-CoV Urbani [3] | Binding of serum 1b to linear peptides of protein N of SARS-CoV Urbani [3] | Binding of serum 1b to looped/cyclic peptides of protein N of SARS-CoV Urbani [3] | Binding of serum 2 to linear peptides of protein N of SARS-CoV Urbani [3] | Binding of serum 2 to looped/cyclic peptides of protein N of SARS-CoV Urbani [3] | Binding of serum 6 to linear peptides of protein N of SARS-CoV Urbani [3] | Binding of serum 6 to looped/cyclic peptides of protein N of SARS-CoV Urbani [3] | Binding of serum 37 to linear peptides of protein N of SARS-CoV Urbani [3] | Binding of serum 37 to looped/cyclic peptides of protein N of SARS-CoV Urbani [3] | Binding of serum 62 to linear peptides of protein N of SARS-CoV Urbani [3] | Binding of serum 62 to looped/cyclic peptides of protein N of SARS-CoV Urbani [3] | Binding of serum London to linear peptides of protein N of SARS-CoV Urbani [3] | Binding of serum London to looped/cyclic peptides of protein N of SARS-CoV Urbani [3] | Binding of serum SARS-green to linear peptides of protein N of SARS-CoV Urbani [3] | Binding of serum SARS-green to looped/cyclic peptides of protein N of SARS-CoV Urbani [3] | Binding of serum SARS-yellow to linear peptides of protein N of SARS-CoV Urbani [3] | Binding of serum SARS-yellow to looped/cyclic peptides of protein N of SARS-CoV Urbani [3] | also measured
1 | IGMEVTPSGTWLTYH | 0.1 | 0.6 | 0.2 | 0.5 | 0.1 | 0.3 | 0.1 | 0.5 | 0.2 | 0.3 | 0.6 | 0.8 | 0.6 | 1.0 | 0.5 | 0.6 | 0.3 | 0.7 | 0.5 | 0.5 | Control Serum Blood-Bank Looped peptides [1]: 0.8; Control serum Blood-bank linear peptides [1]: 0.8; Control serum LUMC linear peptides [1]: 0.6; Control serum LUMC looped peptides [1]: 0.8; Binding of antibody 03-018 to linear peptides of the N protein of SARS-CoV Urbani [4]: 0.1; Binding of antibody 03-018 to looped/cyclic peptides of the N protein of SARS-CoV Urbani [4]: 0.2
2 | RPQGLPNNTASWFTA | 0.1 | 0.5 | 0.3 | 0.5 | 0.1 | 0.3 | 0.2 | 0.5 | 0.2 | 0.4 | 0.7 | 0.9 | 0.7 | 0.8 | 0.5 | 0.5 | 0.3 | 0.5 | 0.4 | 0.7 | Binding of Control Serum Blood-Bank to Looped peptides [1]: 0.9; Binding of Control serum Blood-bank to linear peptides [1]: 0.8; Binding of Control serum LUMC to linear peptides [1]: 0.8; Binding of Control serum LUMC to looped peptides [1]: 0.9; Binding of antibody 03-018 to linear peptides of the N protein of SARS-CoV Urbani [4]: 0.1; Binding of antibody 03-018 to looped/cyclic peptides of the N protein of SARS-CoV Urbani [4]: 0.2
3 | NNNAATVLQLPQGTT | 0.1 | 0.4 | 0.2 | 0.4 | 0.1 | 0.3 | 0.2 | 0.5 | 0.1 | 0.2 | 0.7 | 0.6 | 0.5 | 0.5 | 0.5 | 0.5 | 0.4 | 0.5 | 0.7 | 0.4 | Binding of Control Serum Blood-Bank to Looped peptides [1]: 0.7; Binding of Control serum Blood-bank to linear peptides [1]: 0.8; Binding of Control serum LUMC to linear peptides [1]: 0.7; Binding of Control serum LUMC to looped peptides [1]: 0.8; Binding of antibody 03-018 to linear peptides of the N protein of SARS-CoV Urbani [4]: 0.1; Binding of antibody 03-018 to looped/cyclic peptides of the N protein of SARS-CoV Urbani [4]: 0.3
4 | TDNNQNGGRNGARPK | 0.2 | 0.4 | 0.3 | 0.2 | 0.2 | 0.1 | 0.4 | 0.2 | 0.2 | 0.2 | 0.8 | 0.4 | 1.0 | 0.2 | 0.6 | 0.3 | 0.8 | 0.1 | 0.7 | 0.3 | Binding of Control Serum Blood-Bank to Looped peptides [1]: 0.5; Binding of Control serum Blood-bank to linear peptides [1]: 0.9; Binding of Control serum LUMC to linear peptides [1]: 0.8; Binding of Control serum LUMC to looped peptides [1]: 0.5; Binding of antibody 03-018 to linear peptides of the N protein of SARS-CoV Urbani [4]: 0.2; Binding of antibody 03-018 to looped/cyclic peptides of the N protein of SARS-CoV Urbani [4]: 0.2
